Converted amounts (≈) assume the structure as drawn. Like-named read-outs stand apart in the source and are kept apart here.
How the values were obtained:
[1] = tested on: K. pneumonia - M6; assay: Time kill kinetics; format: cell-based; conditions: drug at 4×MIC
Description: 1. Grow bacteria overnight.
2. Subculture into an autoclaved conical flask containing 10 ml of TSB to an OD of 0.01 (˜1×10^7 Cfu/ml for KP-M6).
4. Take aliquots (100 μl) at timepoints (0, 1, 2, 4, 6, 24 hours) and carry out a serial dilution in PBS (to remove drug and to dilute bacteria to countable numbers).
5. Use the serial dilution to perform a Miles Misra—i.e. Add 3×10 μl spots of each dilution onto an agar plate. Incubate overnight and count colonies on spots in the morning.
6. Control: Subculture bacteria alongside samples but with no antibiotic added. Take aliquots from this at every time point (0, 1, 2, 4, 6, 24 hours) and perform Miles Misra on these too (as detailed in points 4 and 5 above).
7. After the first experiment, if the counts seen on Miles-Misra were zero, total viable counts were determined by spreading 200 μl in a streak down the centre of a TSB agar plate, waiting for the liquid to be absorbed and then spreading over the plate and checking for growth inhibition at the sight of the original streak.
8. The compound is considered bactericidal if the inoculum was reduced >3 log10 CFU/ml and bacteriostatic if inoculum was reduced by 0-3 log10 CFU/ml.
Three measurements were taken for each compound at each time point. These measurements were averaged and the standard deviation was also calculated.

[2] = tested on: NCTC 13438; assay: Effect of efflux pump inhibitors (EPIs) on MIC; format: cell-based, K. pneumoniae; conditions: for MIC: Klebsiella pneumoniae
Description: (§1) 1. Grow up cultures of bacterial strains to be tested overnight.
(§2) 2. Dilute down overnight cultures to concentration of 1×10^6 bacteria/ml (OD0.01) in Tryptic soy broth (TSB).
(§3) 3. Add 100 μl of TSB media to column 2-column 12 in 96 well plate (keeping column 1 clear).
(§4) 4. Make up compound to a concentration of 64 μg/ml in water.
(§5) 5. Add 100 μl of antibiotic solution to the 1st and 2nd columns.
(§6) 6. Using a multichannel pipette take 100 μl from the 2nd column wells and pipette into 3rd column wells and repeat down the 96 well plate (remember to include controls i.e. uninfected media and media with no antibiotic).
(§7) 7. To each well (except uninfected control row H) add 50 μl/well of EPI at 4× final concentration in TSB.
(§8) 9. In wells used to test the effect of the EPI carbonyl cyanide 3-chlorophenylhydrazone (CCCP) the CCCP is added at 10 μg/ml final concentration.
(§9) 10. In wells used to test the effect of the EPI phenylalanine-arginine β-naphthylamide (PABN) the PABN is added at 25 μg/ml final concentration.
(§10) 11. In wells used to test the effect of the PABN+Mg, the PABN is added at 25 μg/ml final concentration, with 1 mM MgSO4 in TSB.
(§11) 12. Wrap plate with parafilm to prevent evaporation.
(§12) 13. Leave at desired temperature (37° C. unless specified elsewhere) for 20 hours.
(§13) 14. Next day check plates for growth and measure optical density (i.e. absorbance) at a wavelength of 600 nm (OD600).
(§14) Compound KMR-14-33 was tested against a range of bacterial species using the above protocol. Compound PP-A148 was also tested against a more limited range of bacterial species using the above protocol. For KMR-14-33 measurements were carried out for the compound alone, for the compound plus CCCP, for the compound plus PABN and for the compound plus PABN and plus Mg. For PP-A148 measurements were carried out for the compound alone and for the compound plus PABN.

[3] = tested on: NCTC 13424; assay: Effect of efflux pump inhibitors (EPIs) on MIC; format: cell-based, A. bauamnnii
Description: as §1, §2, §3, §4, §5, §6, §7, §8, §9, §10, §11, §12, §13, §14

[4] = tested on: Klebsiella KP 342; assay: General MIC protocol, Gram negative; format: cell-based; conditions: Klebsiella, KP342
Description: (§15) General Minimum Inhibitory Concentration (MIC) Protocol
as §1, §2, §3
(§16) 4. Make up compound to a concentration of 64 μg/ml in water (or alternatively to twice the chosen maximum concentration to be tested).
as §5
(§17) 6. Using a multichannel pipette take 100 μl from the 2nd column wells and pipette into 3rd column wells and repeat down the 96 well plate (remembering to include controls i.e. uninfected media and media with no antibiotic).
(§18) 7. To each well (except uninfected control row H) add 100 μl of bacterially infected media at a concentration of 1×10^6/ml.
(§19) 8. This dilutes down the concentration of the antibiotic by half (top dose is therefore 32 μg/ml in column 1) and also gives you a starting bacterial concentration of 5×10^5/ml.
(§20) 9. Wrap plate with parafilm to prevent evaporation.
(§21) 10. Leave at desired temperature (37° C. unless specified elsewhere) for 20 hours.
(§22) 11. Next day check plates for growth and measure optical density (i.e. absorbance) at a wavelength of 600 nm (OD600).
(§23) An example of such a plate is shown in FIG. 1 where column A represents wells that receive the top dose 100 μl; column B represents wells that receive the top dose 100 μl+100 μl TSB; and column C represents wells that receive 100 μl TSB. Row H which is marked by a box labelled D represents a blank where the cells receive no bacteria.
The minimum inhibitory concentration (MIC) was measured using the general MIC protocol given above.

[5] = tested on: resistant mutants of KP 13368; assay: MIC following resistance development; format: cell-based, Klebsiella; conditions: Klebsiella, OFKP13368, read-out: MIC of resistant mutants (in brackets)
Description: as §15, §1, §2, §3, §16, §5, §17, §18, §19, §20, §21, §22, §23
(§24) The MIC of PP-A418 and colistin against the strains used in the time kill analysis of Example 31 following resistance development were measured. The MIC was measured using the general MIC protocol given above. The results are given in Table 14 below where the MIC values of resistant mutants are shown in the brackets.

[6] = tested on: resistant mutants of KP 16; assay: MIC following resistance development; format: cell-based, Klebsiella; conditions: Klebsiella, OFKP16, read-out: MIC of resistant mutants (in brackets)
Description: as §15, §1, §2, §3, §16, §5, §17, §18, §19, §20, §21, §22, §23, §24

Structure (SMILES): COc1cc2c(cc1OCCCC(=O)Nc1cc(C(=O)Nc3ccc4sc(C(=O)N(C)C)cc4c3)n(C)c1)N=C[C@@H]1CCCN1C2=O [KMR-14-33, (S)—N-(2-(dimethylcarbamoyl)benzo[b]thiophen-5-yl)-4-(4-((7-methoxy-5-oxo-2,3,5,11a-tetrahydro-1H-benzo[e]pyrrolo[1,2-a][1,4]-diazepin-8-yl)oxy)butanamido)-1-methyl-1H-pyrrole-2-carboxamide]
- Average (Log CFU/ml) ([1]; time-point 1 hours): 2667 CFU/ml
- n = 1 (Log CFU/ml) ([1]; time-point 1 hours): 3000 CFU/ml
- n = 2 (Log CFU/ml) ([1]; time-point 1 hours): 3000 CFU/ml
- n = 3 (Log CFU/ml) ([1]; time-point 1 hours): 2000 CFU/ml
- Average (Log CFU/ml) ([1]; time-point 2 hours): 0 CFU/ml
- n = 2 (Log CFU/ml) ([1]; time-point 2 hours): 0 CFU/ml
- n = 3 (Log CFU/ml) ([1]; time-point 2 hours): 0 CFU/ml
- viable count ([1]; time-point 2 hours): 0 CFU/mL
- Average (Log CFU/ml) ([1]; time-point 4 hours): 0 CFU/ml
- n = 2 (Log CFU/ml) ([1]; time-point 4 hours): 0 CFU/ml
- n = 3 (Log CFU/ml) ([1]; time-point 4 hours): 0 CFU/ml
- viable count ([1]; time-point 4 hours): 0 CFU/mL
- Average (Log CFU/ml) ([1]; time-point 6 hours): 0 CFU/ml
- n = 2 (Log CFU/ml) ([1]; time-point 6 hours): 0 CFU/ml
- n = 3 (Log CFU/ml) ([1]; time-point 6 hours): 0 CFU/ml
- viable count ([1]; time-point 6 hours): 0 CFU/mL
- Average (Log CFU/ml) ([1]; time-point 24 hours): 0 CFU/ml
- n = 2 (Log CFU/ml) ([1]; time-point 24 hours): 0 CFU/ml
- n = 3 (Log CFU/ml) ([1]; time-point 24 hours): 0 CFU/ml
- viable count ([1]; time-point 24 hours): 0 CFU/mL
- MIC ([2]; NCTC13438, read-out: +CCCP MIC): 0.5 µg/mL (≈ 0.761 µM)
- MIC ([2]; NCTC13438, read-out: Control with no EPI MIC): 0.5 µg/mL (≈ 0.761 µM)
- +PABN MIC ([2]; NCTC 13438, PABN at 25 μg/ml): 0.125 µg/mL
- +PABN + Mg MIC ([2]; NCTC 13438, PABN at 25 μg/ml with 1 mM MgSO4): 0.25 µg/mL
- +PABN MIC ([3]; NCTC 13424, PABN at 25 μg/ml): 0.125 µg/mL
- +PABN + Mg MIC ([3]; NCTC 13424, PABN at 25 μg/ml with 1 mM MgSO4): 0.25 µg/mL
- MIC ([3]; read-out: +CCCP MIC): 0.25 µg/mL (≈ 0.381 µM)
- MIC ([3]; read-out: Control with no EPI MIC): 0.5 µg/mL (≈ 0.761 µM)

Structure (SMILES): COc1cc2c(cc1OCCCC(=O)Nc1cc(C(=O)Nc3ccc4oc(C(=O)N5CCSCC5)cc4c3)n(C)c1)N=C[C@@H]1CCCN1C2=O [PP-A148, (S)-4-(4-((7-methoxy-5-oxo-2,3,5,11a-tetrahydro-1H-benzo-[e]pyrrolo[1,2-a][1,4]diazepin-8-yl)oxy)butanamido)-1-methyl-N-(2-(thiomorpholine-4-carbonyl)benzofuran-5-yl)-1H-pyrrole-2-carboxamide]
- MIC [4]: 4 to 8 µg/mL (≈ 5.72 to 11.4 µM)
- MIC [5]: > 128 µg/mL
- MIC [6]: 4 to 8 µg/mL

— patent publication US10640507B2, “PBD antibacterial agents” (KING'S COLLEGE LONDON, priority 2015, dated 2020)
